Test results from patent US20200054651A1, “COMPOSITIONS AND METHODS FOR MODULATING PPP2R1A” (The Regents of the University of California, priority 2017, published 2020).

Assays:
Assay in all cases: isoTOP-ABPP after in situ treatment of 231MFP cells
Assay type in all cases: binding
Settings in all cases: 100 μM, 4 h in 231MFP cells in situ
TXNDC17 C43 = target: T1, TXNDC17 C43 (Homo sapiens, UniProt Q9BRA2)
T1 construct: IsoTOP-ABPP analysis of DKM 2-90 treatment in 231MFP cells in situ; endogenous in cells; host or cells: 231MFP cells
T1 sequence (Q9BRA2 1-123): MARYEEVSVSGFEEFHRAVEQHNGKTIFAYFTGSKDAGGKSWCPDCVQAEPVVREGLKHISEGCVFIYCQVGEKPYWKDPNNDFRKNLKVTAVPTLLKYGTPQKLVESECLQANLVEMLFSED
Protocol: (§1) IsoTOP-ABPP studies were performed using the methods described in “Nature 534(7608), 570-574 (2016)” by Backus K. M., et al. and “Nature 468(7325), 790-795 (2010)” by Weerapana E., et al. […] Then, IAyne (iodoacetamide-alkyne) labeling was performed for 1 hour at room temperature. CuAAC was used by sequential addition of tris(2-carboxyethyl)phosphine (1 mM), tris[(1-benzyl-1H-1,2,3-triazol-4-yl)methyl]amine (34 μM), copper (II) sulfate (1 mM), and biotin-linker-azide where the linker was functionalized with a TEV protease recognition sequence along with an isotopically light or heavy valine for treatment of control or treated proteome, respectively. After click reactions, proteomes were precipitated by centrifugation at 6500×g, washed in ice-cold methanol, combined in a 1:1 control/treated ratio, washed again, then denatured and re-solubilized by heating in 1.2% SDS/PBS to 80° C. for 5 minutes. Insoluble components were precipitated by centrifugation at 6500×g and soluble proteome was diluted in 0.2% SDS/PBS (5 ml). Labeled proteins were bound to avidin-agarose beads (170 μl re-suspended beads/sample) while rotating overnight at 4° C. Bead-linked proteins were enriched by washing three times each in PBS and water, then re-suspended in urea/PBS (6 M), reduced in TCEP (1 mM), alkylated with iodoacetamide (18 mM), then washed and re-suspended in urea/PBS (2 M), and finally trypsinized overnight with 0.5 μg/μl sequencing grade trypsin. Tryptic peptides were eluted off. Beads were washed in PBS (3 times) and water (3 times), washed in TEV buffer solution (water, TEV buffer, 100 μM dithiothreitol), and re-suspended in buffer with Ac-TEV protease and then incubated overnight. Peptides were diluted in water, acidified with formic acid (1.2 M), and prepared for analysis.
(§2) Peptides from all proteomic experiments were pressure-loaded onto an Agilent 600 series RP-HPLC system equipped with a capillary tubing (250 mm) packed with Aqua C18 reverse-phase resin (4 cm). The system was previously equilibrated with a gradient (0% B to 100% B over 10 minutes, 100% B for 5 minutes, then 0% B for 5 minutes; buffer A: 95:5 water:acetonitrile, 0.1% formic acid; buffer B: 80:20 acetonitrile:water, 0.1% formic acid). The samples were then attached using a MicroTee PEEK 360 μm fitting to a laser pulled column (13 cm) packed with Aqua C18 reverse-phase resin (10 cm) and strong-cation exchange resin (3 cm) for isoTOP-ABPP studies. Samples were analyzed using an Q Exactive Plus mass spectrometer using a 5-step Multidimensional Protein Identification Technology (MudPIT) program. The system was run using a gradient (5% B to 55% B; buffer A: 95:5 water:acetonitrile, 0.1% formic acid; buffer B: 80:20 acetonitrile:water, 0.1% formic acid), along with a salt bump feeding aqueous ammonium acetate (500 mM) at an increment of 0%, 25%, 50%, 80%, to 100%. Data was collected in data-dependent acquisition mode with dynamic exclusion enabled (60 sec). One full MS scan (400-1800 m/z) (MS1 scan) was conducted, followed by MS2 scan (ITMS) (15 times) of the most abundant ions. Heated capillary temperature was set to 200° C. and the nanospray voltage was set to 2.75 kV.
(§3) Data was extracted in the form of MS1 and MS2 files using Raw Extractor 1.9.9.2 and searched against the Uniprot […] database using ProLuCID search methodology in IP2 v.3, described in “J Proteomics 129:16-24 (2015)” by Xu T, et al. Cysteine residues were searched with a static modification for carboxyaminomethylation (+m/z 57.02146), up to two differential modifications for methionine oxidation, and either the light or heavy TEV tags (+m/z 464.28596 or +m/z 470.29977, respectively). Peptides were required to have at least one tryptic end and to contain the TEV modification. ProLUCID data was filtered through DTASelect to achieve a peptide false-positive rate below 1%. […]

SCP2 C307 = target: T2, SCP2 C307 (Homo sapiens, UniProt P22307)
T2 construct: IsoTOP-ABPP analysis of DKM 2-90 treatment in 231MFP cells in situ; endogenous in cells; host or cells: 231MFP cells
T2 sequence (P22307 1-547): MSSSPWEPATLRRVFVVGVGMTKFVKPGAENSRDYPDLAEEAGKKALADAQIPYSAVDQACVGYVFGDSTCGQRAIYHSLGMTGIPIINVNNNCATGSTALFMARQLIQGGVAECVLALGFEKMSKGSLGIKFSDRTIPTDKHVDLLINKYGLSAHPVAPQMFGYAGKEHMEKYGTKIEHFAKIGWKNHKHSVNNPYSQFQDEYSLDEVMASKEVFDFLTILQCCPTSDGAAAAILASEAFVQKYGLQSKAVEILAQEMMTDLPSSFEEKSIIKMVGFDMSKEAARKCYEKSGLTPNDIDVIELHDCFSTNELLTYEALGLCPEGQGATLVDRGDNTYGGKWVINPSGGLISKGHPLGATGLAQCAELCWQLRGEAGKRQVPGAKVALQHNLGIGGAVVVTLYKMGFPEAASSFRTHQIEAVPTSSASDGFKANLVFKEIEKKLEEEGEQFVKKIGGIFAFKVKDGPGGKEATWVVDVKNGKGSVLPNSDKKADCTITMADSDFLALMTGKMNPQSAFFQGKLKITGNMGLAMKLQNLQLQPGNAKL
Protocol: as §1, §2, §3

ACAT1 C196 = target: T3, ACAT1 C196 (Homo sapiens, UniProt P24752)
T3 construct: IsoTOP-ABPP analysis of DKM 2-90 treatment in 231MFP cells in situ; endogenous in cells; host or cells: 231MFP cells
T3 sequence (P24752 34-427): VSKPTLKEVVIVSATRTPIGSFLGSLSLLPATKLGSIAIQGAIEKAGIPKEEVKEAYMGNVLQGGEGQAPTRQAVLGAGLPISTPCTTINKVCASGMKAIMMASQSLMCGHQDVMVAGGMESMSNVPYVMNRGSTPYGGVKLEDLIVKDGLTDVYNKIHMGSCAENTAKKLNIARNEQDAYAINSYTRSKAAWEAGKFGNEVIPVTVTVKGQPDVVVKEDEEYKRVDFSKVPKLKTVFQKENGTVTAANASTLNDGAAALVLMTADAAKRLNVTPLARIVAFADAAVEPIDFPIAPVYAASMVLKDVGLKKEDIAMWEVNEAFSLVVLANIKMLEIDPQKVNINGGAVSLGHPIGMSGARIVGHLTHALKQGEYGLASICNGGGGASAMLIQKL
Protocol: as §1, §2, §3

CLIC4 C35 = target: T4, CLIC4 C35 (Homo sapiens, UniProt Q9Y696)
T4 construct: IsoTOP-ABPP analysis of DKM 2-90 treatment in 231MFP cells in situ; endogenous in cells; host or cells: 231MFP cells
T4 sequence (Q9Y696 whole entry): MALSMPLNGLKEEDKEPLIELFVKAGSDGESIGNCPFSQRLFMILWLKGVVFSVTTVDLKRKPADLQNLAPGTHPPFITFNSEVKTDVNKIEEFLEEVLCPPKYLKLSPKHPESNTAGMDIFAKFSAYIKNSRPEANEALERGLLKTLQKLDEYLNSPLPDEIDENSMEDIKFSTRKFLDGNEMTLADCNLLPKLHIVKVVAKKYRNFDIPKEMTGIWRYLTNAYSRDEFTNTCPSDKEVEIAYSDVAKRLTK
Protocol: as §1, §2, §3

O=C(CCl)Nc1ccc2c(c1)OCCO2 [DKM 2-90, 2-Chloro-N-(2,3-dihydrobenzo[β][1,4]dioxin-6-yl)acetamide]
> 5: isotopically light to heavy ratio, TXNDC17 C43 (TXNDC17 C43) | isotopically light to heavy ratio, SCP2 C307 (SCP2 C307) | isotopically light to heavy ratio, ACAT1 C196 (ACAT1 C196) | isotopically light to heavy ratio, CLIC4 C35 (CLIC4 C35)
